Experimental data: patent publication US11401278B2, “Macrocyclic indole derivatives” (The Broad Institute, Inc., priority 2017, dated 2022)
“And” between values parts separate entries of the source, which are not always exact repeats. Equal entries are not always repeated. Structures can show the parent of a compound that is named as a salt. Where two headings read alike, the source gives them in different places.

Experiments:
A2780 = test: Antiproliferation assay (Assay 7), A2780; format: cell-based; conditions: CellTiter-Glo, several values per example
Experimental: Assessment of the Anti-Proliferative Effect of Compounds in Different Cell Lines
The impact of compounds on the proliferation of different cell lines was assessed using the CellTiter-Glo® Luminescent Cell Viability reagent from Promega (G7573).
In parallel, cells were plated in a reference (day 0) plate for time zero determination.
Rim wells were excluded. The cells were incubated for 72 hours in a humidified incubator at 37° C. The day 0 plate was measured by adding 30 μL/well of CTG solution (CellTiter-Glo® Luminescent Cell Viability reagent, Promega G7573) to time zero wells in the reference plate followed by a 10 minutes incubation and luminescence reading at 0.1 ms. using the PHERAstar FS microplate reader (BMG Labtech).
After 72 hours incubation, the treated plates were measured in the same way as the day 0 plate mentioned above.

MCL1 protein = MCL1 protein (Homo sapiens (Human), UniProt Q07820); test: PIxEL: protein-protein interaction in permeabilized cells by ELISA (Assay 5); format: cell-based; conditions: permeabilized RKO cells, Biotin-BIM peptide 0.2 μM, serum free; median
Experimental: PI×EL: Protein-Protein Interaction in Permeabilized Cells by ELISA
Most MCL1 protein molecules are localized at the mitochondria outer membrane and sequester pro-apoptotic proteins through binding of their BCL2 homology domain 3 (BH3 domain). MEB buffer (150 mM mannitol, 10 mM HEPES pH 7.5, 50 mM KCl, 20 μM EDTA, 20 μM EGTA, 5 mM potassium succinate, 0.1% protease-free BSA (SIGMA) with low dose digitonin (0.002%) permeabilizes plasma membrane while leaves live mitochondria, where MCL1 maintains its native localization and conformation. Unlike biophysical assays (e.g. TR-FRET) that use truncated recombinant MCL1 protein, this assay uses full length endogenous MCL1 protein at mitochondria outer membrane. It measures the interaction between MCL1 protein and biotinylated BIM BH3 peptide. Compounds can compete with BIM BH3 peptide to bind to MCL1 protein. This serum free assay measures the affinity between MCL1 protein and compound in permeabilized cells, therefore it is not affected by serum binding and cell permeability, and can measure the intrinsic compound affinity.
On day 1, RKO colon cancer cell line cells were plated at 0.8 million cells/ml, 100 μl/well in 96-well flat bottom TC plates (Corning). MCL1 antibody (Santa Cruz sc-12756) were diluted at 200 fold (final concentration 1 μg/ml) in carbonate buffer (Thermo Fisher Scientific, pH 9.6), and 50 μl of diluted antibody was added to each well of high bind ELISA plates (SARSTEDT). Each plate was tapped to make sure liquid covering entire bottom of wells and incubate at 37° C. overnight.
On the second day, MCL1 antibody was washed from ELISA plate. 250 μl Odyssey® Blocking Buffer (PBS) (Li-Cor) was added to each well, incubated at room temperature for at least 1 hour, then washed once with 250 μl 1×PBST. Plates with RKO cells were gently washed once with 100 μl/well PBS, once with 100 μl/well MEB buffer without digitonin, then 100 μl of MEB buffer with 0.002% digitonin was gently added to each well. Compounds were added with HP Tecan compound dispenser in 3-fold dilution series, highest dose 30 μM, 10-dose per compound in quadruplicates. Biotin-BIM peptide (synthesized by 21st Century) was added with HP Tecan compound dispenser at 0.2 μM immediately after the addition of compounds. Plates were rocked for 1 hour at room temperature. Then MEB buffer was aspirated and 50 μl of CHAPS buffer (50 mM Tris-Cl, pH 7.4, 150 mM NaCl, 1% CHAPS, 1 mM EDTA, 1 mM EGTA, cOmplete protease inhibitors (Roche), PhosSTOP (Roche)) was added to each well. Plates were rocked for 1 hour at 4° C., then 45 μl cell lysate from each well were transferred to ELISA plates coated with MCL1 antibody. Plates were incubated overnight in the cold room with rocking.
On the third day, ELISA plates were washed once with 250 μl 1×PBST. Streptavidin-poly-HRP (Thermo Fisher Scientific) was diluted to 20 ng/ml in Odyssey blocking buffer plus 0.05% Triton-100, and 100 μl was added to each well of the ELISA plate. Plates were incubated at room temperature for 1 hour with rocking, then washed with 100 μL 1×PBST for 3 times. Each SuperSignal ELISA Femto Maximum Sensitivity substrate was added to a 50-ml tube and mixed, then 100 μl of mixed substrate was added to each well. Plates were shaken for 1 minute then luminescence was measured by Envision plate reader […]. Signal of each well were normalized by no-compound control and no-cell control. IC50 was calculated using Graphic Pad PRISM software.

MCL-1 = MCL-1 (Homo sapiens (Human), UniProt Q07820, K194A/K197A/R201A); test: Protein-compound interaction assay (SPR assay, Assay 8); format: binding; conditions: immobilized MBP-MCL-1, 25° C., geometric mean; for koff: read-out: koff; for kon: read-out: kon
From the text: Assay 8 Protein-Compound Interaction Assay (SPR Assay)
The ability of the compounds described in this invention to bind to MCL-1 may be determined using surface plasmon resonance (SPR). This allows for the quantification of binding in terms of the equilibrium dissociation constant (KD [M]), as well as association and dissociation rate constants (kon [1/M 1/s] and koff [1/s], respectively). The measurements may be performed using Biacore® T200 or Biacore® S200 instruments (GE Healthcare).
For SPR measurements, recombinant MCL-1 (amino acids 173-321, N-terminal fused to Maltose Binding Protein (MBP) (SEQ ID 1) purchased from Beryllium (Bedford, Mass., USA)) was immobilized using standard amine coupling (Johnsson B et al, Anal Biochem. 1991 Nov. 1; 198(2):268-77). Briefly, carboxymethylated dextran biosensor chips (Series S Sensor Chip CMS, GE Healthcare) were activated with 1-ethyl-3-(3-dimethylaminopropyl)-carbodiimide hydrochloride (EDC) and N-hydroxysuccinimide (NHS) according to the supplier's instructions. MBP-MCL-1 was diluted in 1×PBS-P+ (GE Healthcare) and injected on the activated chip surface. Subsequently, a solution of 1 M ethanolamine-HCl (GE Healthcare) was injected to block unreacted groups, resulting in approximately 400-2500 response units (RU) of immobilized protein. A reference surface was generated by treatment with NHS-EDC and ethanolamine-HCl. Compounds were dissolved in 100% dimethylsulfoxide (DMSO) to a concentration of 10 mM and subsequently diluted in running buffer (1×PBS-P+ (GE Healthcare) [generated from PBS-P+ Buffer 10× (GE Healthcare): 0.2 M phosphate buffer with 27 mM KCl, 1.37 M NaCl and 0.5% Surfactant P20 (Tween 20).], 1% v/v DMSO). For SPR binding-measurements, serial dilutions of compound (eight dilution steps, typically ranging from 0.2 nM up to 1 μM) were injected over immobilized protein. […] Compounds were injected for 60 s followed by a dissociation time of up to 1000 s.
The double-referenced sensorgrams were fit to a simple reversible Langmuir 1:1 reaction mechanism as implemented in the Biacore® T200 and S200 evaluation software (T200 evaluation software version 2.0 and S200 evaluation software version 1.0, GE Healthcare).

[1] = Homo sapiens, A2780, 72 h, read-out: Antiproli A2780 [M] IC50

Sequence of MCL-1 (Q07820 whole entry K194A/K197A/R201A, looked up): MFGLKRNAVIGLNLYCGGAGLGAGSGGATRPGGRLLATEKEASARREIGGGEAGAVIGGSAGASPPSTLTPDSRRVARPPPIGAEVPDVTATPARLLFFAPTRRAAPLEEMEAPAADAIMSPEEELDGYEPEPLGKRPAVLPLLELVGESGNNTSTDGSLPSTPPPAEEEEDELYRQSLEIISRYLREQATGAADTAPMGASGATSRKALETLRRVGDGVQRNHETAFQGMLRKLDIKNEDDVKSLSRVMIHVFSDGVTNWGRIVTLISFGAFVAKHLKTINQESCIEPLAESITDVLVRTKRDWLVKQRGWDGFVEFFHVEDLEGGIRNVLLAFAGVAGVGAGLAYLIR
Sequence of MCL1 protein (Q07820 whole entry): as the sequence (Q07820 whole entry K194A/K197A/R201A, looked up) above, with A194K, A197K, A201R counted along it

SMILES | IC50 (A2780; [1]) [M] | IC50 (MCL1 protein) [µM] | Kd (MCL-1) [µM] | koff (MCL-1) [s⁻¹] | kon (MCL-1) [M⁻¹ s⁻¹] | further results
Cc1c2c(nn1C)CN(CCN1CCOCC1)S(=O)(=O)CCCn1c(C(=O)O)c(CCCOc3cccc4ccccc34)c3cccc-2c31 (racemic) [Example 1, (rac)-2,3-Dimethyl-14-[2-(morpholin-4-yl)ethyl]-7-{3-[(naphthalen-1-yl)oxy]propyl}-13,13-dioxo-10,11,12,13,14,15-hexahydro-2H-13λ^6-pyrazolo[3′,4′:4,5][1,2,8]thiadiazacycloundecino-[6,7,8-hi]indole-8-carboxylic acid] | 3.21e-05 |  |  |  |  | IC50 (A2780; 72 hours, listed as 01, read-out: Antiproli A2780 [M] IC50): > 3.3e-05 M
Cc1c2c(nn1C)CN(C)S(=O)(=O)CCCn1c(C(=O)O)c(CCCOc3cccc4ccccc34)c3ccc(Cl)c-2c31 (racemic) [Example 4, (rac)-4-Chloro-2,3,14-trimethyl-7-{3-[(naphthalen-1-yl)oxy]propyl}-13,13-dioxo-10,11,12,13,14,15-hexahydro-2H-13λ^6-pyrazolo[3′,4′:4,5][1,2,8]thiadiazacycloundecino-[6,7,8-hi]indole-8-carboxylic acid] | 1.22e-05 |  |  |  |  | IC50 (A2780; 72 hours, listed as 04, read-out: Antiproli A2780 [M] IC50): 1.66e-05 M
Cc1c2c(nn1C)CN(C)S(=O)(=O)CCCn1c(C(=O)O)c(CCCOc3cccc4ccccc34)c3ccc(Cl)c-2c31 (single isomer, unassigned; enantiomer 1) [Example 5, 4-Chloro-2,3,14-trimethyl-7-{3-[(naphthalen-1-yl)oxy]propyl}-13,13-dioxo-10,11,12,13,14,15-hexahydro-2H-13λ^6-pyrazolo[3′,4′:4,5][1,2,8]thiadiazacycloundecino[6,7,8-hi]indole-8-carboxylic acid-N-ethylethanamine salt (Enantiomer 1)] |  | 0.57 | 0.0024 | 0.0079 | 3.2e+06 | IC50 (A2780; 72 hours, listed as 05, read-out: Antiproli A2780 [M] IC50): 9.33e-06 M and 1.13e-05 M
Cc1c2c(nn1C)CN(CCN1CCOCC1)S(=O)(=O)CCCn1c(C(=O)O)c(CCCOc3cccc4ccccc34)c3cccc-2c31 (single isomer, unassigned; enantiomer 2) [Example 3, 2,3-Dimethyl-14-[2-(morpholin-4-yl)ethyl]-7-{3-[(naphthalen-1-yl)oxy]propyl}-13,13-dioxo-10,11,12,13,14,15-hexahydro-2H-13λ^6-pyrazolo[3′,4′:4,5][1,2,8]thiadiazacycloundecino-[6,7,8-hi]indole-8-carboxylic acid-N-ethylethanamine salt (Enantiomer 2)] |  |  |  |  |  | IC50 (A2780; 72 hours, listed as 03, read-out: Antiproli A2780 [M] IC50): 2.11e-05 M
Cc1c2c(nn1C)CN(C)S(=O)(=O)CCCn1c(C(=O)O)c(CCCOc3cccc4ccccc34)c3ccc(Cl)c-2c31 (single isomer, unassigned; enantiomer 2) [Example 6, 4-Chloro-2,3,14-trimethyl-7-{3-[(naphthalen-1-yl)oxy]propyl}-13,13-dioxo-10,11,12,13,14,15-hexahydro-2H-13λ^6-pyrazolo[3′,4′:4,5][1,2,8]thiadiazacycloundecino[6,7,8-hi]indole-8-carboxylic acid-N-ethylethanamine salt (Enantiomer 2)] |  |  |  |  |  | IC50 (A2780; 72 hours, listed as 06, read-out: Antiproli A2780 [M] IC50): 1.19e-05 M
Cc1c2c(nn1C)C(CCN1CCOCC1)N(C)S(=O)(=O)CCCn1c(C(=O)O)c(CCCOc3cccc4ccccc34)c3cccc-2c31 (single isomer, unassigned; enantiomer 2) [Example 46, 2,3,14-trimethyl-15-[2-(morpholin-4-yl)ethyl]-7-{3-[(naphthalen-1-yl)oxy]propyl}-13,13-dioxo-10,11,12,13,14,15-hexahydro-2H-13lambda^6-pyrazolo[3′,4′:4,5][1,2,8]thiadiazacycloundecino[6,7,8-hi]indole-8-carboxylic acid N-ethylethanamine Salt (Enantiomer 2)] |  | 0.201 | 0.0028 | 0.016 | 5.6e+06 | 
